Where two headings read alike, the source gives them in different places.
Experiments:
[1] = target: T1, β5 subunit of human proteasomes (hβ5) (Homo sapiens, UniProt P28074); test: Proteasome chymotrypsin-like (β5) activity in crude Jurkat cell lysate, Suc-LLVY-AMC substrate; type: biochemical; conditions: read-out: proteasome inhibition IC50 ± s.d., hβ5
T1 construct: endogenous in cells; host or cells: Jurkat cell lysate (crude)
T1 sequence (P28074 60-263): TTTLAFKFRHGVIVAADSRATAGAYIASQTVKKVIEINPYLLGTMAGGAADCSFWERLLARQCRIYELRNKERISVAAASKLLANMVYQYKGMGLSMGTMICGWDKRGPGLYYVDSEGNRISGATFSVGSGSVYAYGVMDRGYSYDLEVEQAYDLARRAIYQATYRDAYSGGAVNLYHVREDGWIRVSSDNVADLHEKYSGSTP
Protocol: Based on our previously reported procedure, the degree of peptide cleavage in a crude Jurkat cell lysate was measured to determine proteasome activity. The fluorescent substrate Suc-LLVY-AMC (Enzo Life Sciences) was used to determine chymotrypsin-like (β5) activity of the proteasomes.

Jurkat cells = test: Cytotoxicity toward Jurkat cells; type: cell-based; conditions: Homo sapiens, read-out: cytotoxicity IC50 ± s.d., Jurkat
Protocol: (§1) Next, analogues 8a–l were evaluated for their cytotoxicities toward Jurkat cells, a human T-cell leukemia model, as well as the breast cancer cell lines MCF-7 and MDA-MB-231, and the multiple myeloma cell line RPMI 8226.

RPMI 8226 cells [2] = test: Cytotoxicity toward RPMI 8226 cells; type: cell-based; conditions: Homo sapiens, read-out: cytotoxicity IC50 ± s.d., RPMI 8226
Protocol: as §1

MCF-7 cells [3] = test: Cytotoxicity toward MCF-7 cells; type: cell-based; conditions: Homo sapiens, MCF7; read-out: cytotoxicity IC50 ± s.d., MCF-7
Protocol: as §1

MDA-MB-231 cells [4] = test: Cytotoxicity toward MDA-MB-231 cells; type: cell-based; conditions: Homo sapiens, read-out: cytotoxicity IC50 ± s.d., MDA-MB-231
Protocol: as §1

MCF-10A cells = test: Cytotoxicity toward MCF-10A cells (normal breast tissue model); type: cell-based; conditions: Homo sapiens, model for normal breast tissue
[5] = Experimentally determined LogP; type: physicochemical
Half-life in buffer = type: physicochemical
Source text: (§2) Isosteric replacement of the phenyl ring at Pz by either a pyridyl or pyrazyl group was well tolerated, allowing the inclusion of one (compounds 8b–d and 8g–i) or two nitrogen atoms (compounds 8e and 8j).

[6] = Biological stability in serum; type: in vitro ADME
Source text: as §2

[7] = cited from earlier work
RPMI 8226 cells [8] = tested on: RPMI 8226 cells; parameters: method as in PMID 30165344; conditions: earlier work; read-out: cytotoxicity IC50, RPMI 8226; cited from earlier work
MCF-7 cells [9] = tested on: MCF-7 cells; parameters: method as in PMID 30165344; conditions: earlier work; read-out: cytotoxicity IC50, MCF-7; cited from earlier work
MDA-MB-231 cells [10] = tested on: MDA-MB-231 cells; parameters: method as in PMID 30165344; conditions: earlier work; read-out: cytotoxicity IC50, MDA-MB-231; cited from earlier work

IC50 [1] | logP [5] | half-life (Half-life in buffer) | biological stability in serum [6] | Compound | IC50 (Jurkat cells) | IC50 (RPMI 8226 cells [2]) | IC50 (MCF-7 cells [3]) | IC50 (MDA-MB-231 cells [4]) | IC50 (MCF-10A cells) | peripheral neuropathy, share of patients [7] | IC50 (RPMI 8226 cells [8]) | IC50 (MCF-7 cells [9]) | IC50 (MDA-MB-231 cells [10])
2.3 ± 0.9 nM | – | – | – | CC[C@H](C)[C@@H]1C(=O)O[C@H]1C(=O)N[C@H](C(=O)N[C@@H](COCc1ccccc1)C(=O)NCc1ccccc1)C(C)C [8a] | 12 ± 2 nM | 64 ± 4 nM | 2290 ± 195 nM | 1940 ± 166 nM | – | – | – | – | –
4.1 ± 1.9 nM | – | – | – | CC[C@H](C)[C@@H]1C(=O)O[C@H]1C(=O)N[C@H](C(=O)N[C@@H](COCc1ccccc1)C(=O)NCc1ccccn1)C(C)C [8b] | 58 ± 14 nM | 139 ± 6 nM | 453 ± 24 nM | 156 ± 3 nM | – | – | – | – | –
3.9 ± 1.8 nM | – | – | – | CC[C@H](C)[C@@H]1C(=O)O[C@H]1C(=O)N[C@H](C(=O)N[C@@H](COCc1ccccc1)C(=O)NCc1cccnc1)C(C)C [8c] | 71 ± 19 nM | 85 ± 3 nM | 5630 ± 550 nM | 242 ± 6 nM | – | – | – | – | –
3 ± 1.2 nM | – | – | – | CC[C@H](C)[C@@H]1C(=O)O[C@H]1C(=O)N[C@H](C(=O)N[C@@H](COCc1ccccc1)C(=O)NCc1ccncc1)C(C)C [8d] | 64 ± 10 nM | 37 ± 1 nM | 5300 ± 598 nM | 328 ± 12 nM | – | – | – | – | –
8.4 ± 3.4 nM | – | – | – | CC[C@H](C)[C@@H]1C(=O)O[C@H]1C(=O)N[C@H](C(=O)N[C@@H](COCc1ccccc1)C(=O)NCc1cnccn1)C(C)C [8e] | 132 ± 4 nM | 31 ± 2 nM | 5180 ± 602 nM | 255 ± 6 nM | – | – | – | – | –
4.5 ± 1.5 nM | – | – | – | CC[C@H](C)[C@@H]1C(=O)O[C@H]1C(=O)N[C@H](C(=O)N[C@@H](COCc1ccccc1)C(=O)NCc1cc(OC)cc(OC)c1)C(C)C [8f] | 63 ± 2 nM | 26 ± 1 nM | 322 ± 39 nM | 53 ± 2 nM | – | – | – | – | –
7.1 ± 1.6 nM | 1.65 | > 10 min | greater than 5 min | CC[C@H](C)[C@@H]1C(=O)O[C@H]1C(=O)N[C@H](C(=O)N[C@@H](COCc1ccccc1)C(=O)OCc1ccccn1)C(C)C [8g] | 35 ± 10 nM | 21 ± 3 nM | 1020 ± 42 nM | 39 ± 2 nM | 123 nM | – | – | – | –
3.3 ± 1.8 nM | – | – | – | CC[C@H](C)[C@@H]1C(=O)O[C@H]1C(=O)N[C@H](C(=O)N[C@@H](COCc1ccccc1)C(=O)OCc1cccnc1)C(C)C [8h] | 61 ± 16 nM | 43 ± 2 nM | 3800 ± 293 nM | 132 ± 3 nM | – | – | – | – | –
4 ± 1.1 nM | – | – | – | CC[C@H](C)[C@@H]1C(=O)O[C@H]1C(=O)N[C@H](C(=O)N[C@@H](COCc1ccccc1)C(=O)OCc1ccncc1)C(C)C [8i] | 36 ± 10 nM | 35 ± 3 nM | 4930 ± 403 nM | 108 ± 7 nM | – | – | – | – | –
13.7 ± 1.6 nM | – | – | – | CC[C@H](C)[C@@H]1C(=O)O[C@H]1C(=O)N[C@H](C(=O)N[C@@H](COCc1ccccc1)C(=O)OCc1cnccn1)C(C)C [8j] | 166 ± 9 nM | 48 ± 2 nM | 4530 ± 290 nM | 146 ± 3 nM | – | – | – | – | –
18.2 ± 54 nM | – | – | – | CC[C@H](C)[C@@H]1C(=O)O[C@H]1C(=O)N[C@H](C(=O)N[C@@H](COCc1ccccc1)C(=O)OCc1ccc(Cl)cc1)C(C)C [8k] | 182 ± 15 nM | 182 ± 4 nM | 3500 ± 279 nM | 222 ± 15 nM | – | – | – | – | –
18.8 ± 5 nM | – | – | – | CC[C@H](C)[C@@H]1C(=O)O[C@H]1C(=O)N[C@H](C(=O)N[C@@H](COCc1ccccc1)C(=O)OCc1ccc(OC)cc1)C(C)C [8l] | 2260 ± 158 nM | 112 ± 2 nM | 1670 ± 267 nM | 636 ± 47 nM | – | – | – | – | –
– | – | – | – | CC(C)C[C@H](NC(=O)[C@H](Cc1ccccc1)NC(=O)c1cnccn1)B(O)O [bortezomib] | – | – | – | – | – | more than 30% | – | – | –
– | – | – | – | CC(C)C[C@H](NC(=O)[C@H](CCc1ccccc1)NC(=O)CN1CCOCC1)C(=O)N[C@@H](Cc1ccccc1)C(=O)N[C@@H](CC(C)C)C(=O)[C@@]1(C)CO1 [carfilzomib, reference compound] | 3.7 ± 0.3 nM | 3.7 ± 0.3 nM | 5.9 ± 0.7 nM | 4.4 ± 0.1 nM | 79 nM | – | – | – | –
– | – | – | – | CC[C@H](C)[C@@H]1C(=O)O[C@H]1C(=O)N[C@H](C(=O)N[C@@H](COCc1ccccc1)C(=O)OCc1ccccc1)C(C)C [compound 1] | 62 ± 7 nM | 45 ± 0.5 nM | 2380 ± 261 nM | 620 ± 50 nM | – | – | 41 nM | 416 nM | 74 nM
